Data as given in patent CN105311047A, “一种替米考星药物包合物及其制备和应用” (Luoyang Huizhong Animal Medicine Co Ltd, priority 2014, dated 2016).

Experiment: In vitro sustained-release test (dialysis bag, phosphate buffer, UV 287 nm)
Type: physicochemical
Settings: after 24 h (24h以后); phosphate buffer pH 6.86, 37±0.5 ℃, 100 r/min

release rate: > 95%
SMILES: CC[C@H]1OC(=O)C[C@@H](O)[C@H](C)[C@@H](O[C@@H]2O[C@H](C)[C@@H](O)[C@H](N(C)C)[C@H]2O)[C@@H](CCN2C[C@H](C)C[C@H](C)C2)C[C@@H](C)C(=O)/C=C/C(C)=C/[C@@H]1CO[C@@H]1O[C@H](C)[C@@H](O)[C@@H](OC)[C@H]1OC [替米考星原粉, 替米考星]
